The source made the active and inactive calls. The rule behind the calls is not given here. Bridge positions count the residues as written; N and C are the ends. Square brackets hold non-standard residues; d marks the D form. Peptide text beside a SMILES is read from it. S5 = C=CCCC[C@](C)(N)C(=O)O
Key:
GTPase KRas = GTPase KRas (Homo sapiens, UniProt P01116, G12C); assay: Binding affinity to biotinylated N-terminal His6-tagged recombinant KRAS G12C mutant (unknown origin) by BLI method
A549 [1] = assay: Induction of apoptosis in human A549 cells harboring KRAS G12S mutant assessed as increase in caspase3 protein level at 40 uM incubated for 24 hrs by Western blot analysis; format: functional, cell-based
A549 [2] = assay: Induction of cell cycle arrest in human A549 cells harboring KRAS G12S mutant assessed as accumulation at G2/M phase at 10 to 40 uM incubated for 24 hrs by PI staining based flow cytometric analysis; format: functional
A549 [3] = assay: Induction of apoptosis in human A549 cells harboring KRAS G12S mutant assessed as late apoptotic cells at 10 uM incubated for 24 hrs by Annexin V-FITC/PI staining based flow cytometric analysis (reference value: 25.4%); format: functional
NCI-H358 [4] = assay: Induction of apoptosis in human NCI-H358 cells harboring KRAS G12C mutant assessed as increase in bax protein level at 40 uM incubated for 24 hrs by Western blot analysis; format: functional, cell-based
NCI-H358 [5] = assay: Induction of apoptosis in human NCI-H358 cells harboring KRAS G12C mutant assessed as early apoptotic cells at 10 uM incubated for 24 hrs by Annexin V-FITC/PI staining based flow cytometric analysis (reference value: 4.34%); format: functional
A549 [6] = assay: Induction of cell cycle arrest in human A549 cells harboring KRAS G12S mutant assessed as reduction in CDK1 protein expression at 40 uM incubated for 24 hrs by Western blot analysis; format: functional, cell-based
NCI-H358 [7] = assay: Induction of cell cycle arrest in human NCI-H358 cells harboring KRAS G12C mutant assessed as reduction in CDK1 protein expression at 40 uM incubated for 24 hrs by Western blot analysis; format: functional, cell-based
A549 [8] = assay: Induction of apoptosis in human A549 cells harboring KRAS G12S mutant assessed as early apoptotic cells at 10 uM incubated for 24 hrs by Annexin V-FITC/PI staining based flow cytometric analysis (reference value: 6.09%); format: functional
NCI-H358 [9] = assay: Induction of apoptosis in human NCI-H358 cells harboring KRAS G12C mutant assessed as viable cells at 10 uM incubated for 24 hrs by Annexin V-FITC/PI staining based flow cytometric analysis (reference value: 67.2%); format: functional; conditions: NCI-H358, 24 h, read-out: Activity
A549 [10] = assay: Induction of apoptosis in human A549 cells harboring KRAS G12S mutant assessed as early apoptotic cells at 2.5 uM incubated for 24 hrs by Annexin V-FITC/PI staining based flow cytometric analysis (reference value: 6.09%); format: functional
[11] = tested on: GTPase KRas (Homo sapiens), P01116 [G12C]; assay: Inhibition of mant-GDP bound N-terminal His6-tagged recombinant KRAS G12C mutant (unknown origin) by fluorescence based assay
A549 [12] = assay: Induction of apoptosis in human A549 cells harboring KRAS G12S mutant assessed as late apoptotic cells at 2.5 uM incubated for 24 hrs by Annexin V-FITC/PI staining based flow cytometric analysis (reference value: 25.4%); format: functional
A549 [13] = assay: Induction of apoptosis in human A549 cells harboring KRAS G12S mutant assessed as viable cells at 20 uM incubated for 24 hrs by Annexin V-FITC/PI staining based flow cytometric analysis (reference value: 68.3%); format: functional; conditions: A549, 24 h, read-out: Activity
NCI-H358 [14] = assay: Induction of apoptosis in human NCI-H358 cells harboring KRAS G12C mutant assessed as viable cells at 20 uM incubated for 24 hrs by Annexin V-FITC/PI staining based flow cytometric analysis (reference value: 67.2%); format: functional; conditions: NCI-H358, 24 h, read-out: Activity
NCI-H358 [15] = assay: Induction of apoptosis in human NCI-H358 cells harboring KRAS G12C mutant assessed as late apoptotic cells at 2.5 uM incubated for 24 hrs by Annexin V-FITC/PI staining based flow cytometric analysis (reference value: 28.2%); format: functional
NCI-H358 [16] = assay: Induction of apoptosis in human NCI-H358 cells harboring KRAS G12C mutant assessed as late apoptotic cells at 10 uM incubated for 24 hrs by Annexin V-FITC/PI staining based flow cytometric analysis (reference value: 28.2%); format: functional
A549 [17] = assay: Induction of apoptosis in human A549 cells harboring KRAS G12S mutant assessed as late apoptotic cells at 20 uM incubated for 24 hrs by Annexin V-FITC/PI staining based flow cytometric analysis (reference value: 25.4%); format: functional
NCI-H358 [18] = assay: Induction of apoptosis in human NCI-H358 cells harboring KRAS G12C mutant assessed as late apoptotic cells at 20 uM incubated for 24 hrs by Annexin V-FITC/PI staining based flow cytometric analysis (reference value: 28.2%); format: functional
NCI-H358 [19] = assay: Induction of cell cycle arrest in human NCI-H358 cells harboring KRAS G12C mutant assessed as accumulation at G2/M phase at 10 to 40 uM incubated for 24 hrs by PI staining based flow cytometric analysis (reference value: 11.08%); format: functional
A549 [20] = assay: Induction of apoptosis in human A549 cells harboring KRAS G12S mutant assessed as necrotic cells at 20 uM incubated for 24 hrs by Annexin V-FITC/PI staining based flow cytometric analysis (reference value: 0.16%); format: functional
[21] = tested on: GTPase KRas (Homo sapiens), P01116 [G12C]; assay: Binding affinity to biotinylated N-terminal His6-tagged recombinant KRAS G12C mutant (unknown origin) assessed as association constant by BLI method
A549 [22] = assay: Induction of apoptosis in human A549 cells harboring KRAS G12S mutant assessed as increase in bax protein level at 40 uM incubated for 24 hrs by Western blot analysis; format: functional, cell-based
NCI-H358 [23] = assay: Induction of apoptosis in human NCI-H358 cells harboring KRAS G12C mutant incubated for 24 hrs by Annexin V-FITC/PI staining based flow cytometric analysis; format: functional, cell-based
NCI-H358 [24] = assay: Antiproliferative activity against human NCI-H358 cells harboring KRAS G12C mutant incubated for 24 hrs by MTT assay; format: functional, cell-based
NCI-H358 [25] = assay: Induction of apoptosis in human NCI-H358 cells harboring KRAS G12C mutant assessed as necrotic cells at 2.5 uM incubated for 24 hrs by Annexin V-FITC/PI staining based flow cytometric analysis (reference value: 0.28%); format: functional
NCI-H358 [26] = assay: Induction of apoptosis in human NCI-H358 cells harboring KRAS G12C mutant assessed as decrease in bcl2 protein level at 40 uM incubated for 24 hrs by Western blot analysis; format: functional, cell-based
NCI-H358 [27] = assay: Induction of apoptosis in human NCI-H358 cells harboring KRAS G12C mutant assessed as early apoptotic cells at 20 uM incubated for 24 hrs by Annexin V-FITC/PI staining based flow cytometric analysis (reference value: 4.34%); format: functional
A549 [28] = assay: Induction of apoptosis in human A549 cells harboring KRAS G12S mutant assessed as viable cells at 10 uM incubated for 24 hrs by Annexin V-FITC/PI staining based flow cytometric analysis (reference value: 68.3%); format: functional; conditions: A549, 24 h, read-out: Activity
NCI-H358 [29] = assay: Induction of apoptosis in human NCI-H358 cells harboring KRAS G12C mutant assessed as viable cells at 2.5 uM incubated for 24 hrs by Annexin V-FITC/PI staining based flow cytometric analysis (reference value: 67.2%); format: functional; conditions: NCI-H358, 24 h, read-out: Activity
A549 [30] = assay: Antiproliferative activity against human A549 cells harboring KRAS G12S mutant at 0.37 to 10 uM incubated for 24 hrs by MTT assay; format: functional, cell-based

Sequence of GTPase KRas (Homo sapiens), P01116 [G12C] (P01116 whole entry G12C): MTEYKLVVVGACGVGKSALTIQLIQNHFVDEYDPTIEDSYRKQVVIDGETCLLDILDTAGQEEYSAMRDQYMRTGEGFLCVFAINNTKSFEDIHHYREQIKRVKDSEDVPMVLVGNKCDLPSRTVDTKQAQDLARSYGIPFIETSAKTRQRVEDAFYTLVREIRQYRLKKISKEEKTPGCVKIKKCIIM
Sequence of GTPase KRas (P01116 whole entry G12C): as above

`CC[C@H](C)[C@H](NC(=O)CNC(=O)[C@H](Cc1ccccc1)NC(=O)[C@H](Cc1ccccc1)NC(=O)[C@H](CCCNC(=N)N)NC(=O)[C@H](CCCNC(=N)N)NC(C)=O)C(=O)N[C@@]1(C)CCC/C=C\CCC[C@@](C)(C(=O)N[C@@H](CC(C)C)C(=O)N[C@@H](CCCCN)C(=O)N[C@H](C(=O)N[C@@H](CCC(=O)O)C(=O)N[C@@H](CCC(=O)O)C(=O)NCC(=O)N[C@@H](CC(N)=O)C(=O)O)[C@@H](C)O)NC(=O)[C@H](CC(N)=O)NC(=O)[C@H](CC(=O)O)NC(=O)[C@H]([C@@H](C)O)NC(=O)[C@H](CC(C)C)NC(=O)[C@H](CC(=O)O)NC1=O` (Ac-RRFFGI[S5]DLTDN[S5]LKTEEGN-OH; staple (Z) 7-13) was tested, and the Kd (GTPase KRas) was 870 nM, the Activity (A549 [1]) was “inactive” and the Activity (A549 [2]) was “inactive”. For the same compound, the Activity (A549 [3]) was 30.1%, the Activity (NCI-H358 [4]) was “Active” and the Activity (NCI-H358 [5]) was 6.37%. For the same compound, the Activity (A549 [6]) was “inactive”, the Activity (NCI-H358 [7]) was “Active” and the Activity (A549 [8]) was 1.79%. The viability at 10 µM (NCI-H358 [9]) was 52.5%, the Activity (A549 [10]) was 2.65% and the inhibition [11] was “Dose-dependent effect”. It also gave an Activity (A549 [12]) of 38.5%, a viability at 20 µM (A549 [13]) of 67.3% and a viability at 20 µM (NCI-H358 [14]) of 46.7%. For the same compound, the Activity (NCI-H358 [15]) was 33%, the Activity (NCI-H358 [16]) was 40.8% and the Activity (A549 [17]) was 30.7%. The Activity (NCI-H358 [18]) was 46.6%, the Activity (NCI-H358 [19]) was 34.4% and the Activity (A549 [20]) was 0.33%. The Ka [21] was 7.3 ×10³ /M.s, the Activity (A549 [22]) was “inactive” and the Activity (NCI-H358 [23]) was “Dose-dependent effect”. For the same compound, the Activity (NCI-H358 [24]) was “Dose-dependent effect”, the Activity (NCI-H358 [25]) was 0.14% and the Activity (NCI-H358 [26]) was “Active”. The Activity (NCI-H358 [27]) was 6.49%, the viability at 10 µM (A549 [28]) was 67.6% and the viability at 2.5 µM (NCI-H358 [29]) was 62.7%. The Activity (A549 [30]) was “inactive”.

From ChEMBL document CHEMBL4373743, “Selective apoptosis-inducing activity of synthetic hydrocarbon-stapled SOS1 helix with d-amino acids in H358 cancer cells expressing KRASG12C” (Eur J Med Chem, 2020)
